We go through nine molecules from patent publication US20250325710A1, “Advanced In Vivo Platform to Study Human Neural Maturation and Circuit Integration” (priority 2022, published 2025).

Assay [1] has as its system blue light-evoked EPSCs in rat pyramidal cortical neurons. The class given is cell-based.
The target in assay [2] is element-binding protein (CBP) (Homo sapiens, UniProt Q92793). The note with it: cited from earlier work.
For assay [3], the system named is Wnt processing and secretion. Conditions: cell-free assay; cited from earlier work.
In assay [4] the test system is Wnt-stimulated cellular responses. The note with it: cited from earlier work.
Assay [5] concerns PORCN. The note with it: read-out: EC50, Porcn inhibitor; cited from earlier work.
Another assay relates to Wnt signaling. The note with it: TM3 cells; cited from earlier work.
The subject of assay [6] is AMPA receptor. As to the kind of experiment: Whole-cell recordings of blue light-evoked EPSCs in rat pyramidal cortical neurons in acute brain slices (activation of t-hCS axons). In kind it is cell-based. Conditions: evoked by blue light activation of t-hCS axons; NBQX 10 μM.
The test system of assay [7] is AMPA receptor. Description: Whole-cell recordings of evoked EPSCs in t-hCS human neurons in acute thalamocortical slices. The class given is cell-based. The note with it: evoked by electrical stimulation of rat S1, internal capsule, white matter or t-hCS, or optogenetic activation of thalamic terminals; NBQX 10 μM.
A further assay addresses Smo heptahelical domain (Homo sapiens, UniProt Q99835). The note with it: cited from earlier work.
The next assay addresses T1, TNKS2 (Homo sapiens, UniProt Q9H2K2).
T1 sequence (Q9H2K2 1-1166): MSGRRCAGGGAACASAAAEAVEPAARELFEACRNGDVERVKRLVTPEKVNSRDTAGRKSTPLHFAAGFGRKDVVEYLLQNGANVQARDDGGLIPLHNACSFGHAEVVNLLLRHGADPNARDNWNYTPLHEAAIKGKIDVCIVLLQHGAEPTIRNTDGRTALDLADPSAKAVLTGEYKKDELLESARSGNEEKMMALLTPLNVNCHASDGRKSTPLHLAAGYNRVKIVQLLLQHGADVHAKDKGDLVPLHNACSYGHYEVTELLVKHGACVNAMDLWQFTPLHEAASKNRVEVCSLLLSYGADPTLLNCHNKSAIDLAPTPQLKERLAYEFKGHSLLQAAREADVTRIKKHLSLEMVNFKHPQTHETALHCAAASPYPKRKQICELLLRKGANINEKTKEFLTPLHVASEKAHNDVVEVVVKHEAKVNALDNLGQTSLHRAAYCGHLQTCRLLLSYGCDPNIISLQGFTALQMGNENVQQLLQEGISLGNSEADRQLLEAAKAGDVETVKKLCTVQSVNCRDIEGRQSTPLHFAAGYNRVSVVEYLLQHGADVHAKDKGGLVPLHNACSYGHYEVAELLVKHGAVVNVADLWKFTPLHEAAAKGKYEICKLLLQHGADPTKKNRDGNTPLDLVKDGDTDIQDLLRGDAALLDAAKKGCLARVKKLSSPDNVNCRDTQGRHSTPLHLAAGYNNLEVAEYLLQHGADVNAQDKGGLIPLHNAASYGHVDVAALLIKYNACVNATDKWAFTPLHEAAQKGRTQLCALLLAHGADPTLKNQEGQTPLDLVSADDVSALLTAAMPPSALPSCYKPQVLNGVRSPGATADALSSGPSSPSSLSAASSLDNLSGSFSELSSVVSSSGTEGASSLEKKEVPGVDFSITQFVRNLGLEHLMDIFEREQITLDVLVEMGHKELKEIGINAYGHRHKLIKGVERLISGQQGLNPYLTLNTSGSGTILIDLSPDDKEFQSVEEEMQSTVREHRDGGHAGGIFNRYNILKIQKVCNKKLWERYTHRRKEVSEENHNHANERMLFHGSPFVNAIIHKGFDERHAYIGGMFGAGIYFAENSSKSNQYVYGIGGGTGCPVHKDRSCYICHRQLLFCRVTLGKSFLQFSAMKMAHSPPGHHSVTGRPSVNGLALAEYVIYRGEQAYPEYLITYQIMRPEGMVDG
Conditions: cited from earlier work.

Assay [8] concerns PORCN. The note with it: HEK293 cells; read-out: IC50, Wnt3A-mediated activation of a multimerized TCF-binding site driving luciferase; cited from earlier work.

Chain of Smo heptahelical domain (Q99835 28-787): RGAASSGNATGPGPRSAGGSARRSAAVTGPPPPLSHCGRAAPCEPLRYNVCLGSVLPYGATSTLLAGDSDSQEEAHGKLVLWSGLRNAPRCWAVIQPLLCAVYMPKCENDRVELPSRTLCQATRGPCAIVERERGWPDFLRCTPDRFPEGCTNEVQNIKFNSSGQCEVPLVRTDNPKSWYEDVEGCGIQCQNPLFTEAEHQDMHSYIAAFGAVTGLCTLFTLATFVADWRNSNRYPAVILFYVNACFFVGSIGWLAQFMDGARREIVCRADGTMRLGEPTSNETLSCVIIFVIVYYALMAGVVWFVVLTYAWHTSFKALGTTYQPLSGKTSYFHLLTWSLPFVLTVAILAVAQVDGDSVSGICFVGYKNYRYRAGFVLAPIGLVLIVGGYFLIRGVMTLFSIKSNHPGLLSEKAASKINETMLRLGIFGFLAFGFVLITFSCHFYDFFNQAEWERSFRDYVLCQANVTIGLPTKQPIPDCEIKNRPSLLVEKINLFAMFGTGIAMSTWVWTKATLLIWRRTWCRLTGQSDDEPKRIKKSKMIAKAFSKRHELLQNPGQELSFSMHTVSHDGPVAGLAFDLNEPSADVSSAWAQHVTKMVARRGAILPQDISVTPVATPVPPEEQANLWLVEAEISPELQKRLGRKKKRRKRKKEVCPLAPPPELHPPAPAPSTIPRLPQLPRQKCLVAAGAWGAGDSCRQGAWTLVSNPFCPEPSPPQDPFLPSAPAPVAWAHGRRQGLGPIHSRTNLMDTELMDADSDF
Chain of element-binding protein (CBP) (Q92793 whole entry): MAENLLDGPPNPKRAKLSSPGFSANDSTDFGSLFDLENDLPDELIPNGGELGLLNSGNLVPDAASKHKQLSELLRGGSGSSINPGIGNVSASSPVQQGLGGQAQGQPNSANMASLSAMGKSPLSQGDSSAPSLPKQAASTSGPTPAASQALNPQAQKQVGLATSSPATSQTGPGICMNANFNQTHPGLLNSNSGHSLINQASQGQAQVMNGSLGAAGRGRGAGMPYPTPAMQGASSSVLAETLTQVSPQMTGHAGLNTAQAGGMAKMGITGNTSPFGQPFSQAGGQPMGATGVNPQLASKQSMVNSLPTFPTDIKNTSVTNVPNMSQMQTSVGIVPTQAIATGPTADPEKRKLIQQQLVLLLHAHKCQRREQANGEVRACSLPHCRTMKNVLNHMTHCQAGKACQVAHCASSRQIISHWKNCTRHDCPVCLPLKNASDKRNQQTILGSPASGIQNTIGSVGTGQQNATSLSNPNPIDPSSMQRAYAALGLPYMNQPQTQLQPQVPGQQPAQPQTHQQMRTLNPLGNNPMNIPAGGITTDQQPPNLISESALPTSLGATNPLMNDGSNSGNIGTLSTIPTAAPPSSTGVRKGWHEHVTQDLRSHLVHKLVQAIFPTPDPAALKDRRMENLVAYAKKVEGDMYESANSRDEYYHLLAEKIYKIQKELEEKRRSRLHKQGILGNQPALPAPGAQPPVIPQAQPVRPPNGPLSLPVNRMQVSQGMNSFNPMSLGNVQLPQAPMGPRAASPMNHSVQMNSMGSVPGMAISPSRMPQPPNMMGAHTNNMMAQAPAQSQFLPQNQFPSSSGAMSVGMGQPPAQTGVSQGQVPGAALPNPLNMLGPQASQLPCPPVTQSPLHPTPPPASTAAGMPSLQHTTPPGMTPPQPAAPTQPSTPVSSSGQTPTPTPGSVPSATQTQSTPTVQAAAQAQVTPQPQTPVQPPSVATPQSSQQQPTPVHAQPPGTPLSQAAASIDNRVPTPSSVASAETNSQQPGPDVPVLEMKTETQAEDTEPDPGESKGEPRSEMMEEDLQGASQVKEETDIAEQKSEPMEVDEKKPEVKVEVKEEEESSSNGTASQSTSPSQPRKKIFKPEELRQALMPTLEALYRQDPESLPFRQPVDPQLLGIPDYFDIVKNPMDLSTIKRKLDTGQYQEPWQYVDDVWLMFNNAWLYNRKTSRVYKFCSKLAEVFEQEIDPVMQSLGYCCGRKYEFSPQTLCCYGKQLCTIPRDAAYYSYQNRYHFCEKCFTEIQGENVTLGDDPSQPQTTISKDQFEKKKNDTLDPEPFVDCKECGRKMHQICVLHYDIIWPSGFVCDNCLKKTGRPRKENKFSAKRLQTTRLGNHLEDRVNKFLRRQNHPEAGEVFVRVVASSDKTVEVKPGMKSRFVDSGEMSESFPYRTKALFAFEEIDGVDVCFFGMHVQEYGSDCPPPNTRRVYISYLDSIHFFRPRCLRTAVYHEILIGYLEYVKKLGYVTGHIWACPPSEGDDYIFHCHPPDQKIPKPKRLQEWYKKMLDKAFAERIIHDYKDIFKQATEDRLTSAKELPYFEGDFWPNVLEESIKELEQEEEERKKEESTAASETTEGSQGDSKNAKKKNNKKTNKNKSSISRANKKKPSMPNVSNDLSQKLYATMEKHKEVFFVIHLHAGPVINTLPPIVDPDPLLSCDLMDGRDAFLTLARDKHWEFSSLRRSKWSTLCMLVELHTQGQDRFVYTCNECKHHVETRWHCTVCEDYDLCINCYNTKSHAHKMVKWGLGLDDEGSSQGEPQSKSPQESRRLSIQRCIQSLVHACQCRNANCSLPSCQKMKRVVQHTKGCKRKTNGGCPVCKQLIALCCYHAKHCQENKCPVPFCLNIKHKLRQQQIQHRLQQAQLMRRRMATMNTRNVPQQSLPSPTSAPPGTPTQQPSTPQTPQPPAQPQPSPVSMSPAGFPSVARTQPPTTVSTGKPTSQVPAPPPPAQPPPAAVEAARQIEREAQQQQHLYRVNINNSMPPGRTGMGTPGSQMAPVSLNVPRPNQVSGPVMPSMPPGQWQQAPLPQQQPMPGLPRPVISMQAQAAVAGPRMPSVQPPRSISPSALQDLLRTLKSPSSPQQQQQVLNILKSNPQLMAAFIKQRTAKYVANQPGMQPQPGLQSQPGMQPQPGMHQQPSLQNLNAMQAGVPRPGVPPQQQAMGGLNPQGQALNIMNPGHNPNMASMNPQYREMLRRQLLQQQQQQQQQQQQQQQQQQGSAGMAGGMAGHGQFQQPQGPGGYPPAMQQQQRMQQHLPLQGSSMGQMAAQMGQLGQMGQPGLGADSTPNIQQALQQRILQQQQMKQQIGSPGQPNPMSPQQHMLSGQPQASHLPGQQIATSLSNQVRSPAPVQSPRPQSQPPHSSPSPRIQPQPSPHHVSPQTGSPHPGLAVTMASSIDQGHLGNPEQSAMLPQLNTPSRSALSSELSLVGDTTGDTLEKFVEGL

Take `Nc1ccncc1` [4-AP, 4 Amino-Pyridine]: the “Effect on blue light-evoked responses in rat cortical neurons” value in assay [1] is listed as “recovered”. On to `O=C1[C@H](Cc2ccc(O)cc2)N2C(=O)CCN(C(=O)NCc3ccccc3)[C@H]2CN1Cc1cccc2ccccc12` [ICG-001], for which the concentration for half-maximal inhibition (IC50) in assay [2] is 3000 nM. With `Cc1ccc2nc(NC(=O)CSc3nc4c(c(=O)n3-c3ccccc3)SCC4)sc2c1` [IWP-2], in assay [3], the concentration for half-maximal inhibition (IC50) was 27 nM. For the same molecule, the “Effect against Wnt-stimulated cellular responses” value in assay [4] is reported as “no effect”.

Take `O=C(CSc1nc2c(c(=O)n1-c1ccccc1)SCC2)Nc1ccc(-c2ccccc2)cn1` [IWP-L6]: the half-maximal effective concentration (EC50) in the assay on PORCN [5] is 0.5 nM. Take `Cc1cc(-c2ncc(CC(=O)Nc3ccc(-c4cnccn4)cn3)cc2C)ccn1` [LGK-974]: in the assay on Wnt signaling, the IC50 is 0.4 nM. For the molecule `NS(=O)(=O)c1cccc2c1c([N+](=O)[O-])cc1nc(O)c(O)nc12` [NBQX], the “Effect on short-latency EPSCs in rat pyramidal cortical neurons” value in the assay on AMPA receptor [6] is reported as “blocked”. For the same molecule, in the assay on AMPA receptor [7], the “Effect on short latency EPSCs in human t-hCS neurons” value is reported as “blocked”. `CNC1CCC(N(Cc2cccc(-c3ccncc3)c2)C(=O)c2sc3ccccc3c2Cl)CC1` (centres unmarked) [SAG]: the dissociation constant (Kd) on Smo heptahelical domain is 59 nM. Take `COc1ccc(-n2c(SCCCN3C(=O)c4cccc5cccc(c45)C3=O)nnc2-c2ccncc2)cc1` [WIKI4]: the IC50 on TNKS2 was 15 nM. As to `Cc1cc(-c2ccc(CC(=O)Nc3ccc(-c4cccnc4)cc3)cc2)ccn1` [Wnt-C59], the half-maximal inhibitory concentration (IC50) with PORCN [8] was 0.074 nM.
